{"source": "patent US9963480B2", "about": "“Nucleoside phosphoramidate compound and use thereof” (priority 2013, dated 2018)", "assay": "Pharmacokinetic studies in SD rats: metabolite GS-461203 in liver homogenate", "assay_type": "in vivo", "conditions": "liver tissue, 50 mg/kg intragastric", "procedure": "In this experiment, the compound of Example 1 was used, and the positive control drug was the same as above. Each of the compounds was added to 0.5% sodium carboxymethyl cellulose (CMC), and the mixture was vortexed to prepare a 10 mg/mL suspension for intragastric administration.\nThe standard substance GS-461203 was the metabolite of the tested compounds, and the chemical name was (2′R)-2′-deoxy-2′-fluoro-2′-methyluridinetriphosphate, which was purchased from TriLink BioTechnologies Corporation, USA.\nMale SD rats, 6-8 weeks old, weighing 237.0-268.4 g, provided by Shanghai Super-B&K laboratory animal Co. Limited.\n• 1) administration: dividing SD rats into 4 groups, with 18 rats in each group, intragastrically administering with the compound in an amount of 50 mg/kg. […]"}
{"smiles": "CC(C)OC(=O)[C@H](C)NP(=O)(OC[C@H]1O[C@@H](n2ccc(=O)[nH]c2=O)[C@](C)(F)[C@@H]1O)Oc1ccc(-c2ccccc2)cc1", "note": "(stereo partly drawn) [Example 1, (2S)-2-((([1,1′-biphenyl]-4-yloxy)(((2R,3R,4R,5R)-5-(2,4-dioxo-3,4-dihydropyrimidin-1(2H)-yl)-4-fluoro-3-hydroxy-4-methyltetrahydrofuran-2-yl)methoxy)phosphoryl)amino)propanoic Acid Isopropyl Ester]", "values": [{"measurement": "in vivo exposure level of the metabolite compared with the positive control", "result": "greater"}]}
